BindingDB's records for PubMed 36262403 (Abbvie, 2022)

Target: T1, P2X purinoceptor 7 (Rattus norvegicus, UniProt Q64663)
T1 sequence (Q64663 whole entry): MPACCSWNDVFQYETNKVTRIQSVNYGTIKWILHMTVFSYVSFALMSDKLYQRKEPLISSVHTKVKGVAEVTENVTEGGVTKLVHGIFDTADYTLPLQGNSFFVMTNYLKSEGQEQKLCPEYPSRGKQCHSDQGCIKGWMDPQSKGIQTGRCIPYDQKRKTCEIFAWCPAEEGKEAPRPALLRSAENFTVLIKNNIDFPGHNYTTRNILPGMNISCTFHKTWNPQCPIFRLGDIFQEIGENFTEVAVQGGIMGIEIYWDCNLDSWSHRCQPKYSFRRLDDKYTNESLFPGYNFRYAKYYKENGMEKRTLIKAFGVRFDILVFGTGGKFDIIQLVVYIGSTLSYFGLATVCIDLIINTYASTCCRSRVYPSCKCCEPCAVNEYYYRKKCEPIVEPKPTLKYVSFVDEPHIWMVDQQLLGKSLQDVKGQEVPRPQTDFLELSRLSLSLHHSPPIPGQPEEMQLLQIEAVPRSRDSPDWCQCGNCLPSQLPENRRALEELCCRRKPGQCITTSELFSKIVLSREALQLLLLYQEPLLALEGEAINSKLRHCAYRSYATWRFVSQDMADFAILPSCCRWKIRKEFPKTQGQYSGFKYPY
Experiment: Antagonist activity against rat P2X7R expressed in human 1321N1 cell membrane incubated for 1 hrs by radioligand binding assay

IC50: 10 nM
Structure (SMILES): C[C@H](NC(=Nc1cccc2ncccc12)NC#N)c1ccccc1 [[3H]A-804598]
